This is an account of results in article PMC3427316 (PLoS ONE, 2012).

The subject of assay [1] is NA with I223R mutation of H1N1pdm09 virus. The format is biochemical, influenza A(H1N1)pdm09 virus.
Assay [2] concerns H1N1pdm09 virus resistant to oseltamivir. The conditions noted are these: zanamivir inhaled (n = 8), intravenous (n = 5) or nebulised (n = 1); cited from earlier work.

As to `CCC(CC)O[C@@H]1C=C(C(=O)O)C[C@H](N)[C@H]1NC(C)=O` [OC, oseltamivir carboxylate], the “reduction in susceptibility associated with the I223R mutation” value in assay [1] lay within 9 to 18 fold.

For `CC(=O)N[C@H]1[C@H]([C@H](O)[C@H](O)CO)OC(C(=O)O)=C[C@@H]1N=C(N)N` [ZAN, zanamivir], the “patients with reduced viral shedding or recovery” value in assay [2] is listed as 12/14.
